In patent US11395821B2, “Treatment of EGFR-driven cancer with fewer side effects” (G1 Therapeutics, Inc., priority 2017, dated 2022):
Entries after “also recorded” stand apart in the source; their conditions may differ.

What was measured:
[1] = system: H1975 (EGFR^L858R/T790M NSCLC Model); test: Example 1: Compound IV + afatinib in H1975 tumor bearing mice; format: in vivo; conditions: Compound IV 50 or 100 mg/kg in combination with afatinib 20 mg/kg, daily, 18 days
Protocol: (§1) The x-axis is days of treatment measured in time and the y-axis is tumor volume measured in mm^3.
(§2) Compound IV in combination with the EGFR-TKI afatinib was tested in an EGFR^L858R/T790M NSCLC model. The combination of Compound IV in dosages of 50 mg/kg and 100 mg/kg+afatinib was tested and compared to treatment regimens consisting of only Compound IV (in 50 mg/kg dose or a 100 mg/kg) or afatinib (20 mg/kg). H1975 (EGFR^L858R/T790M NSCLC Model) tumor bearing mice were treated daily. Tumors were measured twice a week until vehicle treated mice tumors reached about 1000 mm^3 (18 days). Data is plotted to compare tumor growth in each cohort during the 18 days of treatment.

[2] = system: H1975 (EGFR^L858R/T790M NSCLC Model); test: Example 2: Compound IV + erlotinib in H1975 tumor bearing mice; format: in vivo; conditions: Compound IV 50 or 100 mg/kg in combination with erlotinib 70 mg/kg, daily, 18 days
Protocol: as §1
as §2, with “erlotinib” for “afatinib”, “mg/kg+erlotinib” for “mg/kg+afatinib”, “erlotinib (70” for “afatinib (20”

[3] = system: EGFR^ex19del/T790M PDX NSCLC tumor fragments (TM00219, Jackson Labs); test: Example 4: Compound IV +/- osimertinib in EGFR ex19del/T790M PDX model; format: in vivo, NSG mice; conditions: once daily oral gavage 28 days
Description: (§3) The x-axis is days from initiation measured in time and the y-axis is mean tumor volume measured in mm^3.
The x-axis is days from initiation measured in time and the y-axis is median tumor volume measured in mm^3.
After 28 days tumors continued to be measured until they reached tumor burden (>2000 mm^3).

[4] = system: EGFR^ex20ins PDX NSCLC tumor fragments (LU0387, CrownBio); test: Example 5: Compound IV +/- osimertinib in EGFR ex20ins PDX model; format: in vivo, BALB/c nude mice; conditions: once daily oral gavage
Description: as §3
Tumors continued to be measured until they reached tumor burden (>3000 mm3).

Compound: CC(C)N1CCN(c2ccc(Nc3ncc4cc5n(c4n3)C3(CCCCC3)CNC5=O)nc2)CC1 [Compound IV]
- afatinib efficacy and time to resistance (tumor volume) [1]: increased the afatinib efficacy and extended the time to resistance; also recorded: increases EGFR-TKI efficacy and extends time to resistance
- decrease of tumor volume, combination vs Compound IV alone and afatinib alone [1]: more effective at decreasing tumor volume
- erlotinib resistance (tumor volume) [2]: reversed erlotinib resistance; also recorded: reverses EGFR-TKI acquired resistance
- tumor growth vs vehicle, combination ([3]; Compound IV 100 mg/kg + osimertinib 2.5 mg/kg): tumor stasis during dosing that was sustained post treatment; also recorded: delays tumor growth
- tumor growth vs vehicle, single agent ([3]; Compound IV 100 mg/kg or osimertinib 2.5 mg/kg alone): modest tumor growth inhibition
- tumor growth vs vehicle, combination ([4]; Compound IV 100 mg/kg + osimertinib 10 mg/kg): significant tumor growth delay; also recorded: delays tumor growth
- tumor growth vs vehicle, single agent ([4]; 17 days, Compound IV 100 mg/kg or osimertinib 10 mg/kg alone): did not cause an effect
